According to ChEMBL document CHEMBL6153110, “Peptide Double-Stapling and Arginine N-Glycosylation Triggered the Development of Therapeutic Antimicrobial Peptides Capable of Killing Drug-Resistant Bacteria in Mice” (J Med Chem, 2025):
Converted amounts (≈) assume the structure as drawn. Starred links: 1 amine or outer side, 2 acyl side, 3 side chain; linkers in the order of their positions; H or OH if unused. Positions of bridges follow the written chain, without caps; N, C: chain ends. Non-standard residues stand in square brackets, D forms with d. Residues, ends and D or L forms follow the SMILES beside them. ξ: configuration not given here. X1 = N=C(NCCC[C@H](N[*:1])C(=O)[*:2])N[C@@H]1O[C@H](CO)[C@@H](O[C@H]2O[C@H](CO)[C@@H](O[C@H]3O[C@H](CO)[C@@H](O)[C@H](O)[C@H]3O)[C@H](O)[C@H]2O)[C@H](O)[C@H]1O; Arg(Nω-βLac) = N=C(NCCC[C@H](N)C(=O)O)N[C@@H]1O[C@H](CO)[C@@H](O[C@@H]2O[C@H](CO)[C@H](O)[C@H](O)[C@H]2O)[C@H](O)[C@H]1O; X2 = CC(=O)N[C@@H]1[C@@H](O)[C@H](O)[C@@H](CO)O[C@H]1NC(=N)NCCC[C@H](N[*:1])C(=O)[*:2]; ξαMeNle(6-ylidene) = CC(CCCC=[*:3])(N[*:1])C(=O)[*:2]; R8 = C=CCCCCCC[C@@](C)(N)C(=O)O; S5 = C=CCCC[C@](C)(N)C(=O)O; ξV = CC(C)C(N)C(=O)O

Legend:
[1] = tested on: Klebsiella pneumoniae; assay: Antimicrobial activity against Klebsiella pneumoniae ATCC 13883 assessed as growth inhibition measured after 8 hrs incubation by standard broth dilution assay; format: functional
[2] = tested on: Streptococcus pneumoniae; assay: Antimicrobial activity against Streptococcus pneumoniae ATCC 49619 assessed as growth inhibition measured after 8 hrs incubation by standard broth dilution assay; format: functional
[3] = tested on: Staphylococcus aureus; assay: Antimicrobial activity against methicillin-resistant Staphylococcus aureus ATCC 43300 assessed as growth inhibition measured after 8 hrs incubation by standard broth dilution assay; format: functional
[4] = Hemolytic activity in BALB/c mouse red blood cells assessed as hemolysis incubated for 1 hrs; format: toxicity, cell-based, Erythrocyte; details: read-out: HD50
[5] = tested on: Pseudomonas aeruginosa; assay: Antimicrobial activity against Pseudomonas aeruginosa ATCC 27853 assessed as growth inhibition measured after 8 hrs incubation by standard broth dilution assay; format: functional

SMILES | MIC [1] [µg/mL] | MIC [2] [µg/mL] | MIC [3] [µg/mL] | HC50 at 1 h [4] [µg/mL] | MIC [5] [µg/mL]
CC(=O)N[C@@H](CC(C)C)C(=O)N[C@@H](CCCCN)C(=O)N[C@@H](CCCNC(=N)N)C(=O)N[C@H](C(=O)N[C@@H](Cc1c[nH]c2ccccc12)C(=O)N[C@@H](CCCCN)C(=O)N[C@@H](CCCNC(=N)N)C(=O)N[C@H](C(=O)N[C@@H](Cc1ccccc1)C(=O)N[C@@H](CCCCN)C(=O)N[C@@H](CC(C)C)C(=O)N[C@@H](CC(C)C)C(=O)N[C@@H](CCCCN)C(=O)N[C@@H](CCCNC(=N)N)C(=O)N[C@@H](Cc1ccc(O)cc1)C(=O)N[C@@H](Cc1c[nH]c2ccccc12)C(=O)N[C@@H](CCCNC(=N)N)C(=O)N[C@@H](CCC(N)=O)C(=O)N[C@@H](CC(C)C)C(=O)N[C@@H](CCCCN)C(=O)N[C@@H](CCCCN)C(=O)N1CCC[C@H]1C(=O)N[C@H](C(=O)N[C@@H](CCCNC(=N)N[C@@H]1O[C@H](CO)[C@@H](O[C@@H]2O[C@H](CO)[C@H](O)[C@H](O)[C@H]2O)[C@H](O)[C@H]1O)C(N)=O)C(C)C)C(C)C)C(C)C (Ac-LKRVWKRVFKLLKRYWRQLKKPV[Arg(Nω-βLac)]-NH2) | 38 (≈ 10.6 µM) | 4.7 (≈ 1.31 µM) | 4.9 (≈ 1.36 µM) | 39.7 | 5 (≈ 1.39 µM)
CC(=O)N[C@@H](CC(C)C)C(=O)N[C@@H](CCCCN)C(=O)N[C@@H](CCCNC(=N)N[C@@H]1O[C@H](CO)[C@@H](O[C@@H]2O[C@H](CO)[C@H](O)[C@H](O)[C@H]2O)[C@H](O)[C@H]1O)C(=O)N[C@H](C(=O)N[C@@H](Cc1c[nH]c2ccccc12)C(=O)N[C@@H](CCCCN)C(=O)N[C@@H](CCCNC(=N)N)C(=O)N[C@H](C(=O)N[C@@H](Cc1ccccc1)C(=O)N[C@@H](CCCCN)C(=O)N[C@@H](CC(C)C)C(=O)N[C@@H](CC(C)C)C(=O)N[C@@H](CCCCN)C(=O)N[C@@H](CCCNC(=N)N)C(=O)N[C@@H](Cc1ccc(O)cc1)C(=O)N[C@@H](Cc1c[nH]c2ccccc12)C(=O)N[C@@H](CCCNC(=N)N)C(=O)N[C@@H](CCC(N)=O)C(=O)N[C@@H](CC(C)C)C(=O)N[C@@H](CCCCN)C(=O)N[C@@H](CCCCN)C(=O)N1CCC[C@H]1C(=O)N[C@H](C(=O)N[C@@H](CCCNC(=N)N)C(N)=O)C(C)C)C(C)C)C(C)C (Ac-LK[Arg(Nω-βLac)]VWKRVFKLLKRYWRQLKKPVR-NH2) | 38 (≈ 10.6 µM) | 9.9 (≈ 2.76 µM) | 4.9 (≈ 1.36 µM) | 33.8 | 5 (≈ 1.39 µM)
CC(=O)N[C@@H](CC(C)C)C(=O)N[C@@H](CCCCN)C(=O)N[C@@H](CCCNC(=N)N)C(=O)N[C@H](C(=O)N[C@@H](Cc1c[nH]c2ccccc12)C(=O)N[C@@H](CCCCN)C(=O)N[C@@H](CCCNC(=N)N)C(=O)N[C@H](C(=O)N[C@@H](Cc1ccccc1)C(=O)N[C@@H](CCCCN)C(=O)N[C@@H](CC(C)C)C(=O)N[C@@H](CC(C)C)C(=O)N[C@@H](CCCCN)C(=O)N[C@@]1(C)CCC/C=C\CCC[C@@](C)(C(=O)N[C@@H](CC(C)C)C(=O)N[C@@H](CCCCN)C(=O)N[C@@H](CCCCN)C(=O)N2CCC[C@H]2C(=O)N[C@H](C(=O)N[C@@H](CCCNC(=N)N)C(N)=O)C(C)C)NC(=O)[C@H](CCCNC(=N)N)NC(=O)[C@H](Cc2c[nH]c3ccccc23)NC(=O)[C@H](CCCCN)NC1=O)C(C)C)C(C)C (Ac-LKRVWKRVFKLLK[S5]KWR[S5]LKKPVR-NH2; staple (Z) 14-18) | 38 (≈ 11.9 µM) | 2.4 (≈ 0.75 µM) | 10.1 (≈ 3.16 µM) | 53.6 | 5 (≈ 1.56 µM)
CC(=O)N[C@@H](CC(C)C)C(=O)N[C@@H](CCCCN)C(=O)N[C@@H](CCCNC(=N)N)C(=O)N[C@H](C(=O)N[C@@H](Cc1c[nH]c2ccccc12)C(=O)N[C@@H](CCCCN)C(=O)N[C@@H](CCCNC(=N)N)C(=O)N[C@H](C(=O)N[C@@H](Cc1ccccc1)C(=O)N[C@@H](CCCCN)C(=O)N[C@@H](CC(C)C)C(=O)N[C@@H](CC(C)C)C(=O)N[C@@H](CCCCN)C(=O)N[C@@H](CCCNC(=N)N)C(=O)N[C@@H](Cc1ccc(O)cc1)C(=O)N[C@@H](Cc1c[nH]c2ccccc12)C(=O)N[C@@H](CCCNC(=N)N)C(=O)N[C@@H](CCC(N)=O)C(=O)N[C@@H](CC(C)C)C(=O)N[C@@H](CCCCN)C(=O)N[C@@H](CCCCN)C(=O)N1CCC[C@H]1C(=O)N[C@H](C(=O)N[C@@H](CCCNC(=N)N[C@@H]1O[C@H](CO)[C@@H](O[C@H]2O[C@H](CO)[C@@H](O[C@H]3O[C@H](CO)[C@@H](O)[C@H](O)[C@H]3O)[C@H](O)[C@H]2O)[C@H](O)[C@H]1O)C(N)=O)C(C)C)C(C)C)C(C)C (Ac-LKRVWKRVFKLLKRYWRQLKKPV[X1]-NH2) | 38 (≈ 10.1 µM) | 4.7 (≈ 1.25 µM) | 4.9 (≈ 1.31 µM) | 45.7 | 2.6 (≈ 0.693 µM)
CC(=O)N[C@@H](CC(C)C)C(=O)N[C@@H](CCCCN)C(=O)N[C@@H](CCCNC(=N)N)C(=O)N[C@H](C(=O)N[C@@H](Cc1c[nH]c2ccccc12)C(=O)N[C@@H](CCCCN)C(=O)N[C@@H](CCCNC(=N)N)C(=O)N[C@H](C(=O)N[C@@H](Cc1ccccc1)C(=O)N[C@@H](CCCCN)C(=O)N[C@@H](CC(C)C)C(=O)N[C@@H](CC(C)C)C(=O)N[C@@H](CCCCN)C(=O)N[C@@]1(C)CCC/C=C\CCC[C@@](C)(C(=O)N[C@@H](CC(C)C)C(=O)N[C@@H](CCCCN)C(=O)N[C@@H](CCCCN)C(=O)N2CCC[C@H]2C(=O)N[C@H](C(=O)N[C@@H](CCCNC(=N)N)C(N)=O)C(C)C)NC(=O)[C@H](CCCNC(=N)N)NC(=O)[C@H](Cc2c[nH]c3ccccc23)NC(=O)[C@H](Cc2ccc(O)cc2)NC1=O)C(C)C)C(C)C (Ac-LKRVWKRVFKLLK[S5]YWR[S5]LKKPVR-NH2; staple (Z) 14-18) | 2.5 (≈ 0.773 µM) | 2.4 (≈ 0.742 µM) | 4.9 (≈ 1.52 µM) | 12.2 | 5 (≈ 1.55 µM)
CC(=O)N[C@@H](CC(C)C)C(=O)N[C@@H](CCCCN)C(=O)N[C@@H](CCCNC(=N)N)C(=O)N[C@H](C(=O)N[C@@H](Cc1c[nH]c2ccccc12)C(=O)N[C@@H](CCCCN)C(=O)N[C@@H](CCCNC(=N)N)C(=O)N[C@H](C(=O)N[C@@H](CCCCN)C(=O)N[C@@H](CCCCN)C(=O)N[C@@H](CC(C)C)C(=O)N[C@@H](CC(C)C)C(=O)N[C@@H](CCCCN)C(=O)N[C@@]1(C)CCC/C=C\CCC[C@@](C)(C(=O)N[C@@H](CC(C)C)C(=O)N[C@@H](CCCCN)C(=O)N[C@@H](CCCCN)C(=O)N2CCC[C@H]2C(=O)N[C@H](C(=O)N[C@@H](CCCNC(=N)N)C(N)=O)C(C)C)NC(=O)[C@H](CCCNC(=N)N)NC(=O)[C@H](Cc2c[nH]c3ccccc23)NC(=O)[C@H](Cc2ccc(O)cc2)NC1=O)C(C)C)C(C)C (Ac-LKRVWKRVKKLLK[S5]YWR[S5]LKKPVR-NH2; staple (Z) 14-18) | 19.2 (≈ 5.97 µM) | 2.4 (≈ 0.747 µM) | 4.9 (≈ 1.52 µM) | 38 | 5 (≈ 1.56 µM)
CC(=O)N[C@@H]1[C@@H](O)[C@H](O)[C@@H](CO)O[C@H]1NC(=N)NCCC[C@H](NC(=O)[C@H](CCCCN)NC(=O)[C@H](CC(C)C)NC(C)=O)C(=O)N[C@H](C(=O)N[C@@H](Cc1c[nH]c2ccccc12)C(=O)N[C@@H](CCCCN)C(=O)N[C@@H](CCCNC(=N)N)C(=O)N[C@H](C(=O)N[C@@H](Cc1ccccc1)C(=O)N[C@@H](CCCCN)C(=O)N[C@@H](CC(C)C)C(=O)N[C@@H](CC(C)C)C(=O)N[C@@H](CCCCN)C(=O)N[C@@H](CCCNC(=N)N)C(=O)N[C@@H](Cc1ccc(O)cc1)C(=O)N[C@@H](Cc1c[nH]c2ccccc12)C(=O)N[C@@H](CCCNC(=N)N)C(=O)N[C@@H](CCC(N)=O)C(=O)N[C@@H](CC(C)C)C(=O)N[C@@H](CCCCN)C(=O)N[C@@H](CCCCN)C(=O)N1CCC[C@H]1C(=O)N[C@H](C(=O)N[C@@H](CCCNC(=N)N)C(N)=O)C(C)C)C(C)C)C(C)C (Ac-LK[X2]VWKRVFKLLKRYWRQLKKPVR-NH2) | 38 (≈ 10.9 µM) | 9.9 (≈ 2.85 µM) | 2.5 (≈ 0.72 µM) | 45.2 | 5 (≈ 1.44 µM)
CC(=O)N[C@@H](CCCCN)C(=O)N[C@@H](CCCCN)C(=O)N[C@@H](CCCNC(=N)N)C(=O)N[C@H](C(=O)N[C@]1(C)CCCCCC/C=C\CCC[C@@](C)(C(=O)N[C@@H](CCCCN)C(=O)N[C@@]2(C)CCC/C=C\CCCC(C)(C(=O)N[C@@H](CC(C)C)C(=O)N[C@@H](CCCCN)C(=O)N[C@@H](CCCCN)C(=O)N3CCC[C@H]3C(=O)N[C@H](C(=O)N[C@@H](CCCNC(=N)N)C(N)=O)C(C)C)NC(=O)[C@H](CCCNC(=N)N)NC(=O)[C@H](Cc3c[nH]c4ccccc34)NC(=O)[C@H](Cc3ccc(O)cc3)NC2=O)NC(=O)[C@H](CC(C)C)NC(=O)[C@H](CCCCN)NC(=O)[C@H](Cc2ccccc2)NC(=O)C(C(C)C)NC(=O)[C@H](CCCNC(=N)N)NC(=O)[C@H](CCCCN)NC1=O)C(C)C (stereo not given in full) (Ac-KKRV[R8]KR[ξV]FKL[S5]K[S5]YWR[ξαMeNle(6-ylidene)]LKKPVR-NH2; staple (Z) 5-12, 14-18) | 4.9 (≈ 1.51 µM) | 2.4 (≈ 0.74 µM) | 4.9 (≈ 1.51 µM) | 12.7 | 5 (≈ 1.54 µM)
CC(=O)N[C@@H](CC(C)C)C(=O)N[C@@H](CCCCN)C(=O)N[C@@H](CCCNC(=N)N)C(=O)N[C@H](C(=O)N[C@@H](Cc1c[nH]c2ccccc12)C(=O)N[C@@H](CCCCN)C(=O)N[C@@H](CCCNC(=N)N)C(=O)N[C@H](C(=O)N[C@@H](Cc1ccccc1)C(=O)N[C@@H](CCCCN)C(=O)N[C@@H](CC(C)C)C(=O)N[C@@H](CCCCN)C(=O)N[C@@H](CCCCN)C(=O)N[C@@]1(C)CCC/C=C\CCC[C@@](C)(C(=O)N[C@@H](CC(C)C)C(=O)N[C@@H](CCCCN)C(=O)N[C@@H](CCCCN)C(=O)N2CCC[C@H]2C(=O)N[C@H](C(=O)N[C@@H](CCCNC(=N)N)C(N)=O)C(C)C)NC(=O)[C@H](CCCNC(=N)N)NC(=O)[C@H](Cc2c[nH]c3ccccc23)NC(=O)[C@H](Cc2ccc(O)cc2)NC1=O)C(C)C)C(C)C (Ac-LKRVWKRVFKLKK[S5]YWR[S5]LKKPVR-NH2; staple (Z) 14-18) | 38 (≈ 11.7 µM) | 4.7 (≈ 1.45 µM) | 10.1 (≈ 3.11 µM) | 70.1 | 5 (≈ 1.54 µM)
